Read-outs that look alike come from different tables or passages of the source.
Key:
[1] = target: T1, alpha 2C receptor (Homo sapiens, UniProt P18825); test: RSAT (Receptor Selection and Amplification Technology) assay, alpha 2C; type: cell-based; details: for RSAT (rel eff) Alpha 2C: intrinsic activity: ratio of maximal effect to that of standard full agonist brimonidine
T1 construct: expressed in transfected cells; host or cells: NIH-3T3 cells
T1 sequence (P18825 1-462): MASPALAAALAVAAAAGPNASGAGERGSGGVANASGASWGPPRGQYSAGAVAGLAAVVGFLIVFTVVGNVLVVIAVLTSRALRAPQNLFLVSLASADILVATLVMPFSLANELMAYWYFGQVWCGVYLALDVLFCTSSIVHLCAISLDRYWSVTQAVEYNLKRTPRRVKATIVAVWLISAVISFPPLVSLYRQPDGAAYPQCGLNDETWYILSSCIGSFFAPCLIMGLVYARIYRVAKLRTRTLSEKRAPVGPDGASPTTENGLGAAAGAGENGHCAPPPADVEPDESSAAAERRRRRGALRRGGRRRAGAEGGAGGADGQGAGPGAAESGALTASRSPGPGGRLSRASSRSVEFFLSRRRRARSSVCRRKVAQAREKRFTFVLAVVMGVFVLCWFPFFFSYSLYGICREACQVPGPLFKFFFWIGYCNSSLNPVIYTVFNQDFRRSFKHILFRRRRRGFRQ
Experimental: (§1) 76, pp. 308-311 (incorporated herein by reference) and is also described below.
(§2) The RSAT assay measures a receptor-mediated loss of contact inhibition that results in selective proliferation of receptor-containing cells in a mixed population of confluent cells. The increase in cell number is assessed with an appropriate transfected marker gene such as β-galactosidase, the activity of which can be easily measured in a 96-well format. Receptors that activate the G protein, Gq, elicit this response. Alpha 2 receptors, which normally couple to Gi, activate the RSAT response when coexpressed with a hybrid Gq protein that has a Gi receptor recognition domain, called Gq/i5.
(§3) NIH-3T3 cells are plated at a density of 2×10^6 cells in 15 cm dishes and maintained in Dulbecco's modified Eagle's medium supplemented with 10% calf serum. One day later, cells are cotransfected by calcium phosphate precipitation with mammalian expression plasmids encoding p-SV-β-galactosidase (5-10 μg), receptor (1-2 μg) and G protein (1-2 μg). 40 μg salmon sperm DNA may also be included in the transfection mixture. Fresh media is added on the following day and 1-2 days later, cells are harvested and frozen in 50 assay aliquots. Cells are thawed and 100 μl added to 100 μL aliquots of various concentrations of drugs in triplicate in 96-well dishes. Incubations continue 72-96 hr at 37° C. After washing with phosphate-buffered saline, β-galactosidase enzyme activity is determined by adding 200 μL of the chromogenic substrate (consisting of 3.5 mM o-nitrophenyl-β-D-galactopyranoside and 0.5% nonidet P-40 in phosphate buffered saline), incubating overnight at 30° C. and measuring optical density at 420 nm. The absorbance is a measure of enzyme activity, which depends on cell number and reflects a receptor-mediated cell proliferation. The efficacy or intrinsic activity is calculated as a ratio of the maximal effect of the drug to the maximal effect of a standard full agonist for each receptor subtype. Brimonidine, the chemical structure of which is shown below, is used as the standard agonist for the alpha 2B and alpha 2C receptors.

[2] = target: T2, alpha 2B receptor (Homo sapiens, UniProt P18089); test: RSAT (Receptor Selection and Amplification Technology) assay, alpha 2B; type: cell-based; details: for RSAT (rel eff) Alpha 2B: intrinsic activity: ratio of maximal effect to that of standard full agonist brimonidine
T2 construct: expressed in transfected cells; host or cells: NIH-3T3 cells
T2 sequence (P18089 1-450): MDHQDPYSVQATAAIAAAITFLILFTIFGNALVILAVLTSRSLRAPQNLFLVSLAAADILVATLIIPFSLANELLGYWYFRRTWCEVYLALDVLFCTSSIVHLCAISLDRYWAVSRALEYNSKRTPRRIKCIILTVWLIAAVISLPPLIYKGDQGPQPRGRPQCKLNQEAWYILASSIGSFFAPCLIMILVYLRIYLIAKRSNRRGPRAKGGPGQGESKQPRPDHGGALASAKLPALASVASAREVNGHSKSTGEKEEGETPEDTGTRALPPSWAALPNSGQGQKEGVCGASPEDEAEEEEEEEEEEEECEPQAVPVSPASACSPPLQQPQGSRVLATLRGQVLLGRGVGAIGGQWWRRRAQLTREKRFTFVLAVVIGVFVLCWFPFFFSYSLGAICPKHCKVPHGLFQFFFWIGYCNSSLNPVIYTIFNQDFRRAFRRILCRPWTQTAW
Experimental: as §1, §2, §3

EC50 ([1]; NIH-3T3 cells cotransfected with receptor, Gq/i5 and beta-galactosidase, nd = not determinable (>10,000), read-out: RSAT EC50 (nM) Alpha 2C)	EC50 ([2]; NIH-3T3 cells cotransfected with receptor, Gq/i5 and beta-galactosidase, read-out: RSAT EC50 (nM) Alpha 2B)	SMILES	EC50 [1]	RSAT (rel eff) Alpha 2C [1]	EC50 [2]	RSAT (rel eff) Alpha 2B [2]
		C[C@@H](NC1=NCCN1)c1cccc(Cl)c1Cl [Compound 1, N-[1-(2,3-dichloro-phenyl)-ethyl]-4,5-dihydro-1H-imidazol-2-amine]	41 nM	0.35	31 nM	0.68
		C[C@H](NC1=NCCN1)c1cccc(Cl)c1Cl [Compound 2, (+)-(S)—N-[1-(2,3-dichloro-phenyl)-ethyl]-4,5-dihydro-1H-imidazol-2-amine]	63 nM	0.33	19 nM	0.63
		CCC(NC1=NCCN1)c1cccc(Cl)c1Cl (stereo not drawn) [Compound 3, N-[1-(2,3-dichloro-phenyl)-propyl]-4,5-dihydro-1H-imidazol-2-amine]	46 nM	0.30	38 nM	0.82
> 10000 nM	11 nM	Clc1cccc(C(CCc2ccccc2)NC2=NCCN2)c1Cl (stereo not drawn) [Compound 4, N-[1-(2,3-dichloro-phenyl)-3-phenyl-propyl]-4,5-dihydro-1H-imidazol-2-amine]				0.77

— patent US8486985B2, “Selective subtype alpha 2 adrenergic agents and methods for use thereof” (Allergan, Inc., priority 2008, dated 2013)
